Measurements taken from the supplement of paper PMC10307832.

Columns and labels:
Assay in all cases: relative viability (nuclei count vs DMSO), 5 days (fraction); higher = more cells survive
ABC-1 = system: ABC-1
How it was run: (§1)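 Medians of duplicate plates are given as relative viability. That measure is the nuclei count in treated wells divided by the count in vehicle wells. Counts were taken on 4× images of lung cancer cell lines in 1536-well plates, 5 days after pin-tool dosing the day after seeding with one drug alone or a fixed anchor-drug dose plus five library-drug doses (not always all listed) in √10 steps.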

CAL-12T = system: CAL-12T
How it was run: as §1

COR-L23 = system: COR-L23
How it was run: as §1

EMC-BAC-2 = system: EMC-BAC-2
How it was run: as §1

HARA = system: HARA
How it was run: as §1

HCC-366 = system: HCC-366
How it was run: as §1

HOP-62 = system: HOP-62
How it was run: as §1

LK-2 = system: LK-2
How it was run: as §1

NCI-H1437 = system: NCI-H1437
How it was run: as §1

NCI-H1650 = system: NCI-H1650
How it was run: as §1

NCI-H1651 = system: NCI-H1651
How it was run: as §1

NCI-H1734 = system: NCI-H1734
How it was run: as §1

NCI-H1755 = system: NCI-H1755
How it was run: as §1

NCI-H2347 = system: NCI-H2347
How it was run: as §1

NCI-H3122 = system: NCI-H3122
How it was run: as §1

NCI-H441 = system: NCI-H441
How it was run: as §1

NCI-H596 = system: NCI-H596
How it was run: as §1

NCI-H727 = system: NCI-H727
How it was run: as §1

PC-3 [JPC-3] = system: PC-3 [JPC-3]
How it was run: as §1

RERF-LC-KJ = system: RERF-LC-KJ
How it was run: as §1

SK-LU-1 = system: SK-LU-1
How it was run: as §1

UMC-11 = system: UMC-11
How it was run: as §1

Cc1csc(=NC2CCCCC2)n1/N=C/c1ccc(O)c(O)c1O [MIM1] + O=C(CCCCCCC(=O)Nc1ccccc1)NO [Vorinostat] (partner 1 µM)
relative viability (ABC-1; first compound 0.2 µM): 1.42
relative viability (ABC-1; first compound 0.6325 µM): 0.87
relative viability (ABC-1; first compound 2 µM): 0.994
relative viability (ABC-1; first compound 6.325 µM): 0.497
relative viability (ABC-1; first compound 20 µM): 0.247
relative viability (CAL-12T; first compound 0.2 µM): 0.765
relative viability (CAL-12T; first compound 0.6325 µM): 0.752
relative viability (CAL-12T; first compound 2 µM): 0.801
relative viability (CAL-12T; first compound 6.325 µM): 0.588
relative viability (CAL-12T; first compound 20 µM): 0.595
relative viability (COR-L23; first compound 0.2 µM): 0.42
relative viability (COR-L23; first compound 0.6325 µM): 0.441
relative viability (COR-L23; first compound 2 µM): 0.371
relative viability (COR-L23; first compound 6.325 µM): 0.314
relative viability (COR-L23; first compound 20 µM): 0.162
relative viability (EMC-BAC-2; first compound 0.2 µM): 0.492
relative viability (EMC-BAC-2; first compound 0.6325 µM): 0.302
relative viability (EMC-BAC-2; first compound 2 µM): 0.404
relative viability (EMC-BAC-2; first compound 6.325 µM): 0.313
relative viability (EMC-BAC-2; first compound 20 µM): 0.157
relative viability (HARA; first compound 0.2 µM): 0.523
relative viability (HARA; first compound 0.6325 µM): 0.467
relative viability (HARA; first compound 2 µM): 0.56
relative viability (HARA; first compound 6.325 µM): 0.511
relative viability (HARA; first compound 20 µM): 0.0696
relative viability (HCC-366; first compound 0.2 µM): 0.33
relative viability (HCC-366; first compound 2 µM): 0.243
relative viability (HCC-366; first compound 6.325 µM): 0.0699
relative viability (HCC-366; first compound 20 µM): 0.0271
relative viability (HOP-62; first compound 0.2 µM): 0.655
relative viability (HOP-62; first compound 0.6325 µM): 0.469
relative viability (HOP-62; first compound 2 µM): 0.541
relative viability (HOP-62; first compound 6.325 µM): 0.379
relative viability (HOP-62; first compound 20 µM): 0.0827
relative viability (LK-2; first compound 0.2 µM): 0.363
relative viability (LK-2; first compound 0.6325 µM): 0.272
relative viability (LK-2; first compound 2 µM): 0.304
relative viability (LK-2; first compound 6.325 µM): 0.562
relative viability (LK-2; first compound 20 µM): 0.203
relative viability (NCI-H1437; first compound 0.2 µM): 0.712
relative viability (NCI-H1437; first compound 0.6325 µM): 0.843
relative viability (NCI-H1437; first compound 2 µM): 0.833
relative viability (NCI-H1437; first compound 6.325 µM): 0.313
relative viability (NCI-H1437; first compound 20 µM): 0.197
relative viability (NCI-H1650; first compound 0.2 µM): 0.617
relative viability (NCI-H1650; first compound 0.6325 µM): 0.562
relative viability (NCI-H1650; first compound 2 µM): 0.451
relative viability (NCI-H1650; first compound 6.325 µM): 0.119
relative viability (NCI-H1650; first compound 20 µM): 0.179
relative viability (NCI-H1651; first compound 0.2 µM): 0.509
relative viability (NCI-H1651; first compound 0.6325 µM): 0.408
relative viability (NCI-H1651; first compound 2 µM): 0.519
relative viability (NCI-H1651; first compound 6.325 µM): 0.395
relative viability (NCI-H1651; first compound 20 µM): 0.51
relative viability (NCI-H1734; first compound 0.2 µM): 0.911
relative viability (NCI-H1734; first compound 0.6325 µM): 0.582
relative viability (NCI-H1734; first compound 2 µM): 0.757
relative viability (NCI-H1734; first compound 6.325 µM): 0.442
relative viability (NCI-H1734; first compound 20 µM): 0.125
relative viability (NCI-H1755; first compound 0.2 µM): 0.708
relative viability (NCI-H1755; first compound 0.6325 µM): 0.65
relative viability (NCI-H1755; first compound 2 µM): 0.792
relative viability (NCI-H1755; first compound 6.325 µM): 0.671
relative viability (NCI-H1755; first compound 20 µM): 0.296
relative viability (NCI-H2347; first compound 0.2 µM): 0.68
relative viability (NCI-H2347; first compound 0.6325 µM): 0.643
relative viability (NCI-H2347; first compound 2 µM): 0.652
relative viability (NCI-H2347; first compound 6.325 µM): 0.449
relative viability (NCI-H2347; first compound 20 µM): 0.315
relative viability (NCI-H3122; first compound 0.2 µM): 0.959
relative viability (NCI-H3122; first compound 0.6325 µM): 0.894
relative viability (NCI-H3122; first compound 2 µM): 1.02
relative viability (NCI-H3122; first compound 6.325 µM): 0.618
relative viability (NCI-H3122; first compound 20 µM): 0.127
relative viability (NCI-H441; first compound 0.2 µM): 0.748
relative viability (NCI-H441; first compound 0.6325 µM): 0.798
relative viability (NCI-H441; first compound 2 µM): 0.974
relative viability (NCI-H441; first compound 6.325 µM): 0.212
relative viability (NCI-H441; first compound 20 µM): 0.191
relative viability (NCI-H596; first compound 0.2 µM): 0.719
relative viability (NCI-H596; first compound 0.6325 µM): 0.722
relative viability (NCI-H596; first compound 2 µM): 0.561
relative viability (NCI-H596; first compound 6.325 µM): 0.559
relative viability (NCI-H596; first compound 20 µM): 0.337
relative viability (NCI-H727; first compound 0.2 µM): 1.29
relative viability (NCI-H727; first compound 0.6325 µM): 1.16
relative viability (NCI-H727; first compound 2 µM): 1.15
relative viability (NCI-H727; first compound 6.325 µM): 1.06
relative viability (NCI-H727; first compound 20 µM): 0.607
relative viability (PC-3 [JPC-3]; first compound 0.2 µM): 0.776
relative viability (PC-3 [JPC-3]; first compound 0.6325 µM): 0.714
relative viability (PC-3 [JPC-3]; first compound 2 µM): 0.726
relative viability (PC-3 [JPC-3]; first compound 6.325 µM): 0.657
relative viability (PC-3 [JPC-3]; first compound 20 µM): 0.376
relative viability (RERF-LC-KJ; first compound 0.2 µM): 0.616
relative viability (RERF-LC-KJ; first compound 0.6325 µM): 0.558
relative viability (RERF-LC-KJ; first compound 2 µM): 0.507
relative viability (RERF-LC-KJ; first compound 6.325 µM): 0.317
relative viability (RERF-LC-KJ; first compound 20 µM): 0.225
relative viability (SK-LU-1; first compound 0.2 µM): 0.764
relative viability (SK-LU-1; first compound 0.6325 µM): 0.837
relative viability (SK-LU-1; first compound 2 µM): 0.957
relative viability (SK-LU-1; first compound 6.325 µM): 0.623
relative viability (SK-LU-1; first compound 20 µM): 0.393
relative viability (UMC-11; first compound 0.2 µM): 0.501
relative viability (UMC-11; first compound 0.6325 µM): 0.392
relative viability (UMC-11; first compound 2 µM): 0.438
relative viability (UMC-11; first compound 6.325 µM): 0.243
relative viability (UMC-11; first compound 20 µM): 0.147
